Assay results from patent US9598424B2 (Takeda Pharmaceutical Company Limited, priority 2014, dated 2017).

Columns and labels:
Full length human TBK1 = target: T1, Full length human TBK1 (Homo sapiens, UniProt Q9UHD2); assay: Inhibition of TBK1 Enzyme (Caliper microfluidic assay); format: biochemical; settings: 25 μM ATP, 60 min at RT; -log(IC50), IC50 molar; read-out: TBK1 Inhibition (pIC50) (converted)
T1 construct: Full length human TBK1 with an N-terminal His-tag; His-tag (N); made in house; host or cells: Sf9 insect cells (baculovirus, pFastBac1)
T1 sequence (Q9UHD2 1-729): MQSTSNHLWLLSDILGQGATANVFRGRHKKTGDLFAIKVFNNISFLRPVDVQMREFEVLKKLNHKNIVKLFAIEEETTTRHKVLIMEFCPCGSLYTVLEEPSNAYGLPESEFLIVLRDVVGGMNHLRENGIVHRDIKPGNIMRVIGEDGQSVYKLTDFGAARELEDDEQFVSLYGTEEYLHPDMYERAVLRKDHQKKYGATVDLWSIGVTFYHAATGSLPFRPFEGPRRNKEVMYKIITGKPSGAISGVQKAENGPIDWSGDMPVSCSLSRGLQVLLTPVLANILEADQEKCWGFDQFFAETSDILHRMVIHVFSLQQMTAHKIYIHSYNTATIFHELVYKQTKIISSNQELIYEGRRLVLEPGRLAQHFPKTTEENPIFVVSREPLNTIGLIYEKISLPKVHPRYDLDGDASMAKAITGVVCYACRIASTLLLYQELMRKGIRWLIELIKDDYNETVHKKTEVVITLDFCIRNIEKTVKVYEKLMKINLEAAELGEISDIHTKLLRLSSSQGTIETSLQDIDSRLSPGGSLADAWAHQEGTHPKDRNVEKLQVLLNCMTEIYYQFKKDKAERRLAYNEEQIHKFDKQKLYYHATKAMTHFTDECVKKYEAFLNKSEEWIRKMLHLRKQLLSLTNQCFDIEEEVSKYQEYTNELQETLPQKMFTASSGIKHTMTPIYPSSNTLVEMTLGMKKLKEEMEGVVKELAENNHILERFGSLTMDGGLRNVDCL
Outline: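 Enzyme: His-tagged full-length TBK1 expressed in Sf9. Reaction 60 min at RT in 20 mM Hepes pH 7.4, 10 mM MgCl2, 1 mM EDTA, 0.01% Brij-L23, 1 mM DTT, with 5FAM-peptide (added at 1 μM) and TBK1/ATP mix (added at 3 nM/25 μM), then EDTA-quenched. Conversion measured by microfluidic separation; 11-point 2.5-fold series fit to pIC50.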

TBK1 = target: T2, TBK1 (Homo sapiens, UniProt Q9UHD2); assay: Inhibition of TBK1 in Cells (TLR3 driven ISRE β-lactamase reporter assay); format: cell-based; settings: poly IC-LMW stimulation 16 hrs; -log(EC50), EC50 molar; read-out: Inhibition of TBK1 in cells pEC50 (EC) (converted)
T2 construct: host or cells: RA1-ISRE beta-lactamase reporter cells
T2 sequence (Q9UHD2 1-729): T1 sequence (Q9UHD2 1-729)
Outline: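 RA1-ISRE β-lactamase reporter cells (50,000/well) treated with 11-point 2.5-fold compound dilutions and stimulated with 0.15 mg/ml poly IC-LMW for 16 hrs. Reporter read by CCF4-AM FRET; EC50 from non-linear fit of percent inhibition, reported as pEC50 (molar).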

Row | IC50 (Full length human TBK1) [nM] | EC50 (TBK1) [nM] | SMILES
1 | 63.1 | 1660 | O=C(Nc1cn2cc(-c3csc(C(=O)N4CC(F)(F)C4)c3)ccc2n1)C1CC1 [Example 77, N-(6-(5-(3,3-difluoroazetidine-1-carbonyl)thiophen-3-yl)imidazo[1,2-a]pyridin-2-yl)cyclopropanecarboxamide]
2 | 10 | 479 | O=C(NCCC(F)(F)F)c1cc(-c2ccc3nc(NC(=O)C4CC4)cn3c2)cs1 [Example 78, 4-(2-(cyclopropanecarboxamido)imidazo[1,2-a]pyridin-6-yl)-N-(3,3,3-trifluoropropyl)thiophene-2-carboxamide]
3 | 79.4 | 22900 | CC(=O)N1CCC(NC(=O)c2cc(-c3ccc4nc(NC(=O)C5CC5)cn4c3)cs2)C1 (centres unmarked) [Example 79, N-(1-acetylpyrrolidin-3-yl)-4-(2-(cyclopropanecarboxamido)imidazo[1,2-a]pyridin-6-yl)thiophene-2-carboxamide]
4 | 63.1 | 1380 | C[C@H](NC(=O)c1cc(-c2ccc3nc(NC(=O)C4CC4)cn3c2)cs1)C(F)(F)F [Example 80, (S)-4-(2-(cyclopropanecarboxamido)imidazo[1,2-a]pyridin-6-yl)-N-(1,1,1-trifluoropropan-2-yl)thiophene-2-carboxamide]
5 | 2.51 | 44.7 | C[C@@H](NC(=O)c1cc(-c2ccc3nc(NC(=O)C4CC4)cn3c2)cs1)C(F)(F)F [Example 81, (R)-4-(2-(cyclopropanecarboxamido)imidazo[1,2-a]pyridin-6-yl)-N-(1,1,1-trifluoropropan-2-yl)thiophene-2-carboxamide]
6 | 20 | 646 | COCCN(CC(F)(F)F)C(=O)c1cc(-c2ccc3nc(NC(=O)C4CC4)cn3c2)cs1 [Example 83, 4-(2-(cyclopropanecarboxamido)imidazo[1,2-a]pyridin-6-yl)-N-(2-methoxyethyl)-N-(2,2,2-trifluoroethyl)thiophene-2-carboxamide]
7 | 31.6 | 2820 | O=C(NC1COCC1O)c1cc(-c2ccc3nc(NC(=O)C4CC4)cn3c2)cs1 (centres unmarked) [Example 84, 4-(2-(cyclopropanecarboxamido)imidazo[1,2-a]pyridin-6-yl)-N-(4-hydroxytetrahydrofuran-3-yl)thiophene-2-carboxamide]
8 | 100 | 4070 | O=C(NC1CCCC1=O)c1cc(-c2ccc3nc(NC(=O)C4CC4)cn3c2)cs1 (centres unmarked) [Example 85, 4-(2-(cyclopropanecarboxamido)imidazo[1,2-a]pyridin-6-yl)-N-(2-oxocyclopentyl)thiophene-2-carboxamide]
9 | 63.1 | 2880 | O=C(N[C@H]1CCOC1)c1nc(-c2ccc3nc(NC(=O)C4CC4)cn3c2)cs1 [Example 87, (S)-4-(2-(cyclopropanecarboxamido)imidazo[1,2-a]pyridin-6-yl)-N-(tetrahydrofuran-3-yl)thiazole-2-carboxamide]
10 | 31.6 | 1020 | O=C(N[C@H]1CCC[C@H]1O)c1nc(-c2ccc3nc(NC(=O)C4CC4)cn3c2)cs1 [Example 89, 4-(2-(cyclopropanecarboxamido)imidazo[1,2-a]pyridin-6-yl)-N-((1S, 2R)-2-hydroxycyclopentyl)thiazole-2-carboxamide]
11 | 39.8 | 1020 | O=C(NC1CCCC1(F)F)c1nc(-c2ccc3nc(NC(=O)C4CC4)cn3c2)cs1 (centres unmarked) [Example 90, 4-(2-(cyclopropanecarboxamido)imidazo[1,2-a]pyridin-6-yl)-N-(2,2-difluorocyclopentyl)thiazole-2-carboxamide]
12 | 200 | 5130 | O=C(NC1CCCC1=O)c1nc(-c2ccc3nc(NC(=O)C4CC4)cn3c2)cs1 (centres unmarked) [Example 91, 4-(2-(cyclopropanecarboxamido)imidazo[1,2-a]pyridin-6-yl)-N-(2-oxocyclopentyl)thiazole-2-carboxamide]
13 | 50.1 | 1120 | O=C(NCCC(F)(F)F)c1nc(-c2ccc3nc(NC(=O)C4CC4)cn3c2)cs1 [Example 92, 4-(2-(cyclopropanecarboxamido)imidazo[1,2-a]pyridin-6-yl)-N-(3,3,3-trifluoropropyl)thiazole-2-carboxamide]
14 | 7.94 | 110 | O=C(Nc1cn2cc(-c3csc(C(=O)N4CCC[C@@H]4C(F)(F)F)n3)ccc2n1)C1CC1 [Example 93, (R)-N-(6-(2-(2-(trifluoromethyl)pyrrolidine-1-carbonyl)thiazol-4-yl)imidazo[1,2-a]pyridin-2-yl)cyclopropanecarboxamide]
15 | 200 | 5500 | O=C(NC1CCOC1=O)c1nc(-c2ccc3nc(NC(=O)C4CC4)cn3c2)cs1 (centres unmarked) [Example 94, 4-(2-(cyclopropanecarboxamido)imidazo[1,2-a]pyridin-6-yl)-N-(2-oxotetrahydrofuran-3-yl)thiazole-2-carboxamide]
16 | 63.1 | 851 | O=C(Nc1cn2cc(-c3csc(C(=O)N4CC(F)(F)C[C@H]4CO)n3)ccc2n1)C1CC1 [Example 96, (S)-N-(6-(2-(4,4-difluoro-2-(hydroxymethyl)pyrrolidine-1-carbonyl)thiazol-4-yl)imidazo[1,2-a]pyridin-2-yl)cyclopropanecarboxamide]
17 | 126 | 1550 | COC1CCN(C(=O)c2nc(-c3ccc4nc(NC(=O)C5CC5)cn4c3)cs2)C1 (centres unmarked) [Example 97, N-(6-(2-(3-methoxypyrrolidine-1-carbonyl)thiazol-4-yl)imidazo[1,2-a]pyridin-2-yl)cyclopropanecarboxamide]
18 | 200 | 14500 | NC(=O)C1CCN(C(=O)c2nc(-c3ccc4nc(NC(=O)C5CC5)cn4c3)cs2)C1 (centres unmarked) [Example 98, 1-(4-(2-(cyclopropanecarboxamido)imidazo[1,2-a]pyridin-6-yl)thiazole-2-carbonyl)pyrrolidine-3-carboxamide]
19 | 200 | 776 | N#CC1CN(C(=O)c2nc(-c3ccc4nc(NC(=O)C5CC5)cn4c3)cs2)C1 [Example 102, N-(6-(2-(3-cyanoazetidine-1-carbonyl)thiazol-4-yl)imidazo[1,2-a]pyridin-2-yl)cyclopropanecarboxamide]
20 | 79.4 | 794 | CC1CCN(C(=O)c2nc(-c3ccc4nc(NC(=O)C5CC5)cn4c3)cs2)C1 (centres unmarked) [Example 103, N-(6-(2-(3-methylpyrrolidine-1-carbonyl)thiazol-4-yl)imidazo[1,2-a]pyridin-2-yl)cyclopropanecarboxamide]
21 | 5.01 | 166 | C[C@@H](NC(=O)c1cc(-c2ccc3nc(NC(=O)C4CC4)cn3c2)n[nH]1)C(F)(F)F [Example 104, (R)-3-(2-(cyclopropanecarboxamido)imidazo[1,2-a]pyridin-6-yl)-N-(1,1,1-trifluoropropan-2-yl)-1H-pyrazole-5-carboxamide]
22 | 316 | 5370 | O=C(Nc1cn2cc(-c3cc(C(=O)N4CCC(F)CC4)[nH]n3)ccc2n1)C1CC1 [Example 105, N-(6-(5-(4-fluoropiperidine-1-carbonyl)-1H-pyrazol-3-yl)imidazo[1,2-a]pyridin-2-yl)cyclopropanecarboxamide]
23 | 31.6 | 589 | CN(CC(F)(F)F)C(=O)c1cc(-c2ccc3nc(NC(=O)C4CC4)cn3c2)n[nH]1 [Example 106, 3-(2-(cyclopropanecarboxamido)imidazo[1,2-a]pyridin-6-yl)-N-methyl-N-(2,2,2-trifluoroethyl)-1H-pyrazole-5-carboxamide]
24 | 63.1 | 2750 | O=C(Nc1cn2cc(-c3cc(C(=O)N4CCC(F)C4)[nH]n3)ccc2n1)C1CC1 (centres unmarked) [Example 107, N-(6-(5-(3-fluoropyrrolidine-1-carbonyl)-1H-pyrazol-3-yl)imidazo[1,2-a]pyridin-2-yl)cyclopropanecarboxamide]
25 | 79.4 | 4370 | O=C(N[C@H]1COC[C@H]1O)c1nc(-c2ccc3nc(NC(=O)C4CC4)cn3c2)cs1 [Example 108, 4-(2-(cyclopropanecarboxamido)imidazo[1,2-a]pyridin-6-yl)-N-((3S,4S)-4-hydroxytetrahydrofuran-3-yl)thiazole-2-carboxamide]
